Assay results reported in patent US20090156473A1, “PHARMACEUTICAL COMPOSITION FOR THE TREATMENT OF VIRAL INFECTIONS AND/OR TUMOR DISEASES BY INHIBITING PROTEIN FOLDING AND PROTEIN BREAKDOWN” (Virologik GmbH, priority 2006, published 2009).

What was measured:
[1] = tested on: HeLaSS6 cells transfected with subgenomic HIV-1 expression vector pNLenv1; assay: Time kinetics of Gag processing and virus release, Western blot of cell and virus fractions; format: cell-based; conditions: 100 nM 17-AAG vs inhibitor-free medium
Method: Time kinetics were studied for biochemical analysis of the influence of 17-AAG on the kinetics of Gag processing and virus release. The experimental details of cultivation, transfection, media exchange and time kinetics are reported in Example 4a/b. For this purpose there were used cultures of HeLaSS6 cells that had been transfected with pNLenv1 (Schubert et al., 1995). Following incubation in 17-AAG-containing medium (100 nM 17-AAG) or inhibitor-free medium, the kinetic studies were begun after distinct washing steps and aliquoting of the preparations. Aliquot cell cultures were taken at each time and separated into cell, virus and cell-culture supernatant fractions by centrifugation. The HIV proteins were separated by SDS PAGE, transferred onto PVDF membranes and then made visible on x-ray films by antibody-mediated chemiluminescence.
HeLa cells (ATCC CCL2) were cultivated in Dulbeccos' modified Eagle's medium (DMEM) with 10% fetal calf serum, 2 mM L-glutamine, 100 U/mL penicillin and 100 μg/mL streptomycin.
HeLa cells (ATCC CCL2) were transfected using a mixture of pNLΔenv and lipofectamine2000 in OPTI-MEM. A media exchange was undertaken after 8 hours of incubation at 37° C. and 5% CO2. […] The HIV-specific and cell-specific proteins were detected via specific antibodies (to Hsp70; Hsp90; p24; PR55; β-actin). […]

[2] = tested on: X4-trophic HI viruses; assay: HLAC model (human tonsil cells) infected with X4-trophic HI viruses, RT assay of supernatants; format: cell-based, HIV-1; conditions: for virus replication of X4-trophic HI viruses (RT data): tonsil A; for X4-trophic HIV replication (RT data): tonsil B
Method: Human tonsils were macerated and transferred into 96-well plates. After one day of incubation, the cells were infected with X4-trophic HI viruses, mixed with the corresponding inhibitors and washed on the following day. These and also the subsequent steps are described in detail under Example 4c-d. At each kinetic point, 150 μL of medium was removed and stored at −80° C. until measurement at RT. The medium that was again added contained the inhibitor concentrations necessary for the special preparation.
After 15 days, the proportion of functional HI viruses formed was determined by means of RT assays (see Example 4e) of the stored supernatants.
Tonsil cells were cultivated in RPMI 1640 with 15% (V/V) fetal calf serum, 2 mM L-glutamine, 100 U/mL penicillin, 100 μg/mL streptomycin, 2.5 μg/mL Fungizone, 1 mM sodium pyrovate, 1% MEM non-essential amino acid solution and 50 μg/mL gentanamycin (“tonsil medium”).
To produce virus preparations, plasmid DNA of molecular HIV-1 DNA was transfected into HeLa cells using the calcium phosphate precipitation method. For this purpose, confluent cultures of HeLa cells (5×10^6 cells) were incubated with 25 μg of plasmid DNA in calcium phosphate crystals, produced according to a method of Graham and van der Eb (1973), then subjected to glycerol shock according to Gorman et al. (1982). To obtain concentrated virus preparations, the cell culture supernatants were harvested two days after transfection. Thereafter the cells as well as their constituents were separated by centrifugation (1000 g, 5 minutes, 4° C.) and filtration (0.45 μm pore size). Virus particles were pelleted by ultracentrifugation (Beckman SW55 rotor, 1.5 hours, 35,000 rpm, 10° C.) and then resuspended in 1 mL of DMEM medium. The virus preparations were sterilized by filtration (0.45 μm pore size) and were frozen in portions (−80° C.). Individual virus preparations were standardized by determination of the reverse transcriptase activity, specifically on the basis of an already described test (Willey et al., 1988), using [32P]-TTP incorporation into an oligo(dT)-poly(A) template.
The tonsil tissue was washed in PBS, then cleaned of blood clots and cut into pieces measuring 1 to 2 mm^2 with the scalpel. Individual cells were obtained by mechanical pressing through a filter gauze. Following centrifugation of the isolated cells (5 minutes, 1200 rpm), the cells were counted, seeded into 96-well plates and incubated overnight at 37° C. and 5% CO2. Infection of the cells was achieved by addition of 10 ng of X4-trophic HIV stocks and simultaneous application of the corresponding inhibitor concentrations. On the following day, 50 μL of supernatant was withdrawn (“1 dpi”) and stored at −80° C. Thereupon the cells were centrifuged (5 minutes, 1200 rpm) and a further 50 μL of supernatant was withdrawn. Following resuspension of the cells in 100 μL of tonsil medium, this washing step was repeated two times. Tonsil medium with the corresponding inhibitor concentrations was added and then the cells were re-incubated at 37° C. and 5% CO2. On days 3, 6, 9 and 12, 150 μL of medium was withdrawn and stored at −80° C., and 150 μL of medium with the corresponding inhibitor concentrations was added. On day 15, only 150 μL of supernatant was removed and stored at −80° C., after which the cells were discarded.
The tonsil supernatants stored at −80° C. were assayed by determination of the reverse transcriptase activity, specifically on the basis of an already described test (Willey et al., 1988), using [32P]-TTP incorporation into an oligo(dT)-poly(A) template.

Structure (SMILES)	Gag processing in the virus fraction [1]	Hsp70 expression in the cell fraction [1]	virus replication of X4-trophic HI viruses in the HLAC model ([2]; summary statement of Example 3, RT assays after 15 days)	virus replication of X4-trophic HI viruses (RT data) ([2]; 10 nM 17-AAG alone)	virus replication of X4-trophic HI viruses (RT data) ([2]; single inhibitor at 1 nM)	X4-trophic HIV replication (RT data) ([2]; 10 nM 17-AAG alone)	X4-trophic HIV replication (RT data) ([2]; single inhibitor at 1 nM)
C=CCNC1=C2C[C@@H](C)C[C@H](OC)[C@H](O)[C@@H](C)/C=C(\C)[C@H](OC(N)=O)[C@@H](OC)/C=C\C=C(/C)C(=O)NC(=CC1=O)C2=O [17-AAG]	reduced Gag processing	intensified Hsp70 expression	inhibits the virus replication	not clearly influenced	not clearly influenced	distinct reduction of virus replication	did not exhibit any influence
CC(C)C[C@H](NC(=O)[C@H](Cc1ccccc1)NC(=O)c1cnccn1)B(O)O [PS341]	–	–	–	–	not clearly influenced	–	did not exhibit any influence
